Experimental data as given in EP0080051A2, “Heterocyclic compounds and antibacterial and antifungal compositions containing the same as active ingredients” (MEIJI SEIKA KAISHA LTD., priority 1981, dated 1983).
Values after ≈ are worked out from the molar mass of the structure shown. Read-outs that look alike come from different tables or passages of the source.

Tests used:
[1] = mouse, p.o.
[2] = system: Staphylococcus aureus 209P JC-1; assay: Antibacterial activity (in medicinal field), MIC; format: cell-based; settings: read-out: Minimal Inhibitory Conc. (MIC)
[3] = system: Staphylococcus epidermidis ATCC 14990; assay: Antibacterial activity (in medicinal field), MIC; format: cell-based; settings: ATCC14990, read-out: Minimal Inhibitory Conc. (MIC)
[4] = system: Staphylococcus faecalis ATCC 8043; assay: Antibacterial activity (in medicinal field), MIC; format: cell-based; settings: ATCC8043, read-out: Minimal Inhibitory Conc. (MIC)
[5] = system: Bacillus anthracis No. 109; assay: microbe, parasite or virus in culture; format: cell-based; settings: NO.109, read-out: Minimal Inhibitory Conc. (MIC)
[6] = system: Escherichia coli NIHJ JC-2; assay: Antibacterial activity (in medicinal field), MIC; format: cell-based; settings: NIHJJC2, read-out: Minimal Inhibitory Conc. (MIC)
[7] = system: Citrobacter freundii GN-346; assay: Antibacterial activity (in medicinal field), MIC; format: cell-based; settings: GN346, read-out: Minimal Inhibitory Conc. (MIC)
Salmonella typhi O-901-W = assay: Antibacterial activity (in medicinal field), MIC; format: cell-based; settings: Salmonella enterica, read-out: Minimal Inhibitory Conc. (MIC)
[8] = system: Shigella sonnei EW 33 Type I; assay: Antibacterial activity (in medicinal field), MIC; format: cell-based; settings: EW33TYPEI, read-out: Minimal Inhibitory Conc. (MIC)
[9] = system: Klebsiella pneumoniae PCI-602; assay: Antibacterial activity (in medicinal field), MIC; format: cell-based; settings: PCI602, read-out: Minimal Inhibitory Conc. (MIC)
Proteus vulgaris OX-19 = assay: Antibacterial activity (in medicinal field), MIC; format: cell-based; settings: OX19, read-out: Minimal Inhibitory Conc. (MIC)
[10] = system: Serratia marcescens MB-3848; assay: Antibacterial activity (in medicinal field), MIC; format: cell-based; settings: MB3848, read-out: Minimal Inhibitory Conc. (MIC)
[11] = system: Pseudomonas cepacia M-0527; assay: Antibacterial activity (in medicinal field), MIC; format: cell-based; settings: Burkholderia cepacia, M0527, read-out: Minimal Inhibitory Conc. (MIC)
[12] = system: Trichophyton mentagrophytes; assay: Therapeutic experiment: treatment of trichophytosis in guinea pigs; format: in vivo; settings: 1 % preparation, 0.25 ml once per day over 8 consecutive days, visual observation of diseased skin

SMILES	Acute Toxicity (survival) ([1]; Dosage 200 mg/kg)	Acute Toxicity (survival) ([1]; Dosage 500 mg/kg)	Acute Toxicity (survival) ([1]; Dosage 800 mg/kg)	MIC [2] [µg/mL]	MIC [3] [µg/mL]	MIC [4] [µg/mL]	MIC [5] [µg/mL]	MIC [6] [µg/mL]	MIC [7] [µg/mL]	MIC (Salmonella typhi O-901-W) [µg/mL]	MIC [8] [µg/mL]	MIC [9] [µg/mL]	MIC (Proteus vulgaris OX-19) [µg/mL]	MIC [10] [µg/mL]	MIC [11] [µg/mL]	Therapeutic Effect: Desquamation [12]	Therapeutic Effect: Redness [12]	Therapeutic Effect: Thickening [12]	Acute Toxicity (survival) ([1]; Dosage 100 mg/kg)
O=[N+]([O-])c1ccn(CC#CI)c1 [1-(1'-iodopro-pyn-3'-yl)-3-nitropyrrole, 1-(1'-iodopropyn-3'-yl)-3-nitropyrrole]	All animals survived	All animals survived	All animals survived	–	–	–	–	–	–	–	–	–	–	–	–	–	–	–	–
O=[N+]([O-])c1cn(CC#CI)c(Cl)c1Cl [1-(1'-iodopropyn-3'-yl)-2,3-dichloro-4-nitropyrrole]	All animals survived	All animals survived	All animals survived	–	–	–	–	–	–	–	–	–	–	–	–	–	–	–	–
O=[N+]([O-])c1cn(CC(I)=C(I)I)c(Cl)c1Cl [1-(2',3',3'-triiodoallyl)-2,3-dichloro-4-nitropyrrole]	All animals survived	–	All animals survived	31.2 (≈ 52.1 µM)	31.2 (≈ 52.1 µM)	31.2 (≈ 52.1 µM)	31.2 (≈ 52.1 µM)	12.5 (≈ 20.9 µM)	12.5 (≈ 20.9 µM)	12.5 (≈ 20.9 µM)	6.25 (≈ 10.4 µM)	25 (≈ 41.8 µM)	6.25 (≈ 10.4 µM)	6.25 (≈ 10.4 µM)	6.25 (≈ 10.4 µM)	effective	prominently effective	effective	All animals survived
O=[N+]([O-])c1cc(Cl)n(CC(I)=C(I)I)c1 [1-(2',3',3'-triiodoallyl)-2-chloro-4-nitropyrrole]	–	–	–	6.25 (≈ 11.1 µM)	6.25 (≈ 11.1 µM)	6.25 (≈ 11.1 µM)	6.25 (≈ 11.1 µM)	12.5 (≈ 22.2 µM)	12.5 (≈ 22.2 µM)	12.5 (≈ 22.2 µM)	12.5 (≈ 22.2 µM)	25 (≈ 44.3 µM)	12.5 (≈ 22.2 µM)	12.5 (≈ 22.2 µM)	12.5 (≈ 22.2 µM)	–	–	–	–
O=[N+]([O-])c1nccn1CC(I)=C(I)I [1-(2',3',3'-triiodoallyl)-2-nitroimidazole]	–	–	–	12.5 (≈ 23.5 µM)	12.5 (≈ 23.5 µM)	25 (≈ 47.1 µM)	6.25 (≈ 11.8 µM)	25 (≈ 47.1 µM)	3.12 (≈ 5.88 µM)	12.5 (≈ 23.5 µM)	3.12 (≈ 5.88 µM)	6.25 (≈ 11.8 µM)	6.25 (≈ 11.8 µM)	25 (≈ 47.1 µM)	3.12 (≈ 5.88 µM)	–	–	–	–
O=[N+]([O-])c1ccn(CC(I)=C(I)I)c1 [1-(2',3',3'-triiodoallyl)-3-nitropyrrole]	All animals survived	–	All animals survived	–	–	–	–	–	–	–	–	–	–	–	–	effective	prominently effective	effective	All animals survived
IC(I)=C(I)Cn1ccnc1 [1-(2',3',3'-triiodoallyl)-imidazole, 1-(2',3',3'-Triiodoallyl)imidazole]	–	–	–	12.5 (≈ 25.7 µM)	12.5 (≈ 25.7 µM)	25 (≈ 51.5 µM)	12.5 (≈ 25.7 µM)	12.5 (≈ 25.7 µM)	12.5 (≈ 25.7 µM)	12.5 (≈ 25.7 µM)	6.5 (≈ 13.4 µM)	12.5 (≈ 25.7 µM)	12.5 (≈ 25.7 µM)	12.5 (≈ 25.7 µM)	6.25 (≈ 12.9 µM)	–	–	–	–
Clc1ccccc1C(c1ccccc1)(c1ccccc1)n1ccnc1 [chlotri-mazol, 1-(O-chloro-d, a-diphenylbenzyl) imidazole, reference compound]	–	–	–	–	–	–	–	–	–	–	–	–	–	–	–	effective	in-effective	effective	–
O=[N+]([O-])c1c(Cl)cccc1-c1c[nH]cc1Cl [pyrrolni-trin, 3-chloro-4-(2'-nitro-3'-chlorophenyl)pyrrole, reference compound]	–	–	–	–	–	–	–	–	–	–	–	–	–	–	–	in-effective	in-effective	effective	–
